Where two headings read alike, the source gives them in different places. Each block holds one compound with its values, some of them ahead of it.
Key:
[1] = tested on: colon cancer cell line DLD1; assay: Cancer cell line colony survival assay, DLD1; format: cell-based, human; conditions: colon cancer cell line DLD1, 4 h exposure, colonies after 10-15 days, read-out: AA in Cancer Cell Lines IC50 (μM) DLD1
Description: (§1) HaCaT keratinocyte proliferation assay and LDH release were described previously in full detail (Muller et al. J. Med. Chem. 39: 3132-3138, 1996; Müller et al. J. Med. Chem. 37: 1660-1669, 1994). For the cancer cell line studies, exponentially growing cells were seeded at 1,000 cells per well in six-well plates and allowed to attach for 24 h. Compounds of the invention or β-lapachone, solubflized in DMSO, were added to the wells in micromolar concentrations. Control wells were treated with equivalent volumes of DMSO. After 4 h the supernatant was removed and fresh medium was added. Cultures were observed daily for 10-15 days and then were fixed and stained. Colonies of greater than 30 cells were scored as survivors.

[2] = tested on: HaCaT cells; assay: HaCaT keratinocyte proliferation assay (cell counting); format: cell-based, human; conditions: for inhibition of HaCaT cell proliferation (in words): HaCaT cells
Description: Anthralin, an antipsoriatic drug, was used as a positive control. Antiproliferative activity was measured directly by counting the dispersed cells under a phase-contrast microscope.
as §1, with “survivors. […]” for “survivors.”

[3] = tested on: breast cancer cell line MCF7; assay: Cancer cell line colony survival assay, MCF7; format: cell-based, human; conditions: breast cancer cell line MCF7, 4 h exposure, colonies after 10-15 days, read-out: AA in Cancer Cell Lines IC50 (μM) MCF7
Description: as §1

[4] = tested on: colon cancer cell line SW480; assay: Cancer cell line colony survival assay, SW480; format: cell-based, human; conditions: colon cancer cell line SW480, 4 h exposure, colonies after 10-15 days, read-out: AA in Cancer Cell Lines IC50 (μM) SW480
Description: as §1

[5] = tested on: HaCaT cells; format: cell-based, human; conditions: for LDH (mU): human, 2 μM
Description: as §1
The cytotoxicity of naphthoquinones has been thought to result, at least in part, from reactive oxygen species, generated during redox cycling between the […] and reduction products (Munday, R., Free Radic. Biol. Med., 22, 689-695, 1997), which cause peroxidative damage to membrane lipids. To assess the correlation of keratinocyte growth inhibition with membrane damage, the release of lactate dehydrogenase from the treated cells was also quantitated.

[6] = tested on: human keratinocyte cell line HaCaT; conditions: Müller et al., J. Nat. Prod. 62 (1999); cited from earlier work
[7] = Homo sapiens, antiproliferative activity against HaCaT cells, N = 3, read-out: AA in HaCaT Cells IC50
[8] = antiproliferative activity against HaCaT cells, N = 3, read-out: AA in HaCaT Cells IC50

- melting point: 261 to 262 °C
- LDH (mU) [5]: 134 mU
Compound: CC(=O)c1cc2c(s1)C(=O)c1ccccc1C2=O [Compound 63b, 2-Acetyl-naphtho[2,3-b]thiophene-4,9-dione]
- IC50 ([1]; Homo sapiens, DLD-1): 1 µM
- IC50 [2, 7]: 0.3 µM
- IC50 ([3]; Homo sapiens): ≤ 1 µM
- IC50 ([4]; Homo sapiens): 4 µM

- melting point: 164 to 165 °C
- LDH (mU) [5]: 122 mU
Compound: O=C(c1ccccc1)c1cc2cc3ccccc3cc2s1 [Compound 64a, Naphtho[2,3-b]thiophen-2-yl-phenylmethanone]
- IC50 ([1]; Homo sapiens, DLD-1): 1.5 µM
- IC50 [2, 7]: 0.3 µM
- IC50 ([3]; Homo sapiens): ≤ 1 µM
- IC50 ([4]; Homo sapiens): ≤ 1 µM

- melting point: 158 to 159 °C
Compound: O=C(c1ccccc1)c1cc2c(s1)C(=O)c1ccccc1C2=O [Compound 64b, 2-Benzoyl-naphtho[2,3-b]thiophene-4,9-dione]
- IC50 ([1]; Homo sapiens, DLD-1): 1.3 µM
- inhibition of HaCaT cell proliferation (in words) [2]: inhibited cell proliferation at concentrations comparable to β-lapachone and the furan analogs
- IC50 [2, 7]: 1.7 µM
- IC50 ([3]; Homo sapiens): ≤ 1 µM
- IC50 ([4]; Homo sapiens): 4 µM
- LDH release compared to vehicle control (in words) [5]: without significant elevation of LDH release over the vehicle control

- melting point: 175 to 176 °C
Compound: COc1ccc(C(=O)c2cc3cc4ccccc4cc3s2)cc1OC [Compound 65a, (3,4-Dimethoxyphenyl)-naphtho[2,3-b]thiophen-2-yl-methanone]
- IC50 ([1]; Homo sapiens, DLD-1): > 32 µM
- IC50 [2, 7]: > 5 µM
- IC50 ([3]; Homo sapiens): > 32 µM
- IC50 ([4]; Homo sapiens): > 32 µM

- melting point: 212 to 218 °C
- LDH (mU) [5]: 137 mU
Compound: COc1ccc(C(=O)c2cc3c(s2)C(=O)c2ccccc2C3=O)cc1OC [Compound 65b, 2-(3,4-Dimethoxybenzoyl)-naphtho[2,3-b]thiophene-4,9-dione]
- IC50 ([1]; Homo sapiens, DLD-1): 2.6 µM
- inhibition of HaCaT cell proliferation (in words) [2]: inhibited cell proliferation at concentrations comparable to β-lapachone and the furan analogs
- IC50 [2, 7]: 0.8 µM
- IC50 ([3]; Homo sapiens): ≤ 1 µM
- IC50 ([4]; Homo sapiens): 10 µM
- LDH release compared to vehicle control (in words) [5]: without significant elevation of LDH release over the vehicle control

- melting point: 272 to 274 °C (dec.)
- LDH (mU) [5]: 118 mU
Compound: O=C(c1ccc(O)c(O)c1)c1cc2c(s1)C(=O)c1ccccc1C2=O [Compound 65c, 2-(3,4-Dihydroxybenzoyl)-naphtho[2,3-b]thiophene-4,9-dione]
- IC50 ([1]; Homo sapiens, DLD-1): 11 µM
- inhibition of HaCaT cell proliferation (in words) [2]: inhibited cell proliferation at concentrations comparable to β-lapachone and the furan analogs
- IC50 [2, 7]: 1.5 µM
- IC50 ([3]; Homo sapiens): 8 µM
- IC50 ([4]; Homo sapiens): 20 µM
- LDH release compared to vehicle control (in words) [5]: without significant elevation of LDH release over the vehicle control

- melting point: 251 to 252 °C
Compound: O=C(c1ccc([N+](=O)[O-])cc1)c1cc2cc3ccccc3cc2s1 [Compound 66a, Naphtho[2,3-b]thiophen-2-yl-(4-nitrophenyl)methanone]
- IC50 ([1]; Homo sapiens, DLD-1): > 32 µM
- IC50 [2, 7]: > 5 µM
- IC50 ([3]; Homo sapiens): > 32 µM
- IC50 ([4]; Homo sapiens): > 32 µM

- melting point: 270 °C
Compound: O=C(c1ccc([N+](=O)[O-])cc1)c1cc2c(s1)C(=O)c1ccccc1C2=O [Compound 66b, 2-(4-Nitrobenzoyl)-naphtho[2,3-b]thiophene-4,9-dione]
- IC50 ([1]; Homo sapiens, DLD-1): 25 µM
- IC50 [2, 7]: 4 µM

- melting point: 140 to 142 °C
- LDH (mU) [5]: 142 mU
Compound: O=C(c1ccccc1)c1cc2cc3ccccc3cc2o1 [Compound 74a, Naphtho[2,3-b]furan-2-yl-phenylmethanone]
- IC50 ([1]; Homo sapiens, DLD-1): 7.6 µM
- IC50 [2, 7]: 1.9 µM
- IC50 ([3]; Homo sapiens): ≤ 1 µM
- IC50 ([4]; Homo sapiens): 12 µM

- melting point: 198 to 200 °C
- LDH (mU) [5]: 222 mU
Compound: O=C(c1ccccc1)c1cc2c(o1)C(=O)c1ccccc1C2=O [Compound 74b, 2-Benzoyl-naphtho[2,3-b]furan-4,9-dione]
- IC50 [2, 7]: 0.7 µM

Further lines, the compound ahead of its results:

Compound: CC(=O)c1cc2c(o1)C(=O)c1ccccc1C2=O [Compound 6, 2-Acetyl-naphtho[2,3-b]furan4,9-dione]
- IC50 ([1]; Homo sapiens, DLD-1): 0.8 µM
- inhibition of HaCaT cell proliferation (in words) [2]: inhibited cell proliferation
- IC50 [2, 7]: 0.5 µM
- IC50 ([3]; Homo sapiens): ≤ 1 µM
- IC50 ([4]; Homo sapiens): ≤ 1 µM
- LDH release compared to vehicle control (in words) [5]: significant LDH release as compared to vehicle
- LDH (mU) [5]: 331 mU

Compound: COc1ccc(C(=O)c2cc3cc4ccccc4cc3s2)cc1 [Compound 62a, (4-Methoxyphenyl)-naphtho[2,3-b]thiophen-2-yl-methanone]
- IC50 ([1]; Homo sapiens, DLD-1): > 32 µM
- IC50 [2, 7]: > 5 µM
- IC50 ([3]; Homo sapiens): > 32 µM
- IC50 ([4]; Homo sapiens): > 32 µM

Compound: COc1ccc(C(=O)c2cc3c(s2)C(=O)c2ccccc2C3=O)cc1 [Compound 62b, 2-(4-Methoxybenzoyl)-naphtho[2,3-b]thiophene-4,9-dione]
- IC50 ([1]; Homo sapiens, DLD-1): 5.5 µM
- IC50 [2, 7]: > 5 µM
- IC50 ([3]; Homo sapiens): 3 µM
- IC50 ([4]; Homo sapiens): 16 µM

Compound: O=C(c1ccc(O)cc1)c1cc2c(s1)C(=O)c1ccccc1C2=O [Compound 62c, 2-(4-Hydroxybenzoyl)-naphtho[2,3-b]thiophene-4,9-dione]
- IC50 ([1]; Homo sapiens, DLD-1): 5.3 µM
- IC50 [2, 7]: 2.7 µM
- IC50 ([3]; Homo sapiens): 2 µM
- IC50 ([4]; Homo sapiens): 12 µM
- LDH (mU) [5]: 123 mU

Compound: CC(=O)c1cc2cc3ccccc3cc2s1 [Compound 63a, Naphtho[2,3-b]thiophen-2-yl-ethanone]
- IC50 [1]: > 32 µM
- inhibition of HaCaT cell proliferation (in words) [2]: inhibited cell proliferation at concentrations comparable to β-lapachone and the furan analogs
- IC50 [2, 8]: 5 µM
- IC50 [3]: > 32 µM
- IC50 [4]: > 32 µM
- LDH release compared to vehicle control (in words) [5]: without significant elevation of LDH release over the vehicle control

Compound: CC(=O)c1cc2cc3ccccc3cc2o1 [Compound 73a, Naphtho[2,3-b]furan-2-yl-ethanone]
- IC50 [1]: > 32 µM
- IC50 [2, 8]: > 5 µM
- IC50 [3]: > 32 µM
- IC50 [4]: > 32 µM

Compound: COc1ccc(C(=O)c2cc3cc4ccccc4cc3o2)cc1OC [Compound 75a, (3,4-Dimethoxyphenyl)-naphtho[2,3-b]furan-2-yl-methanone]
- IC50 ([1]; Homo sapiens, DLD-1): 14 µM
- IC50 [2, 7]: > 5 µM
- IC50 ([3]; Homo sapiens): 12 µM
- IC50 ([4]; Homo sapiens): 30 µM

Compound: COc1ccc(C(=O)c2cc3c(o2)C(=O)c2ccccc2C3=O)cc1OC [Compound 75b, 2-(3,4-Dimethoxybenzoyl)-naphtho[2,3-b]furan:4,9-dione]
- IC50 [1]: 1.4 µM
- IC50 [2, 8]: 2.5 µM

Compound: CC(=O)Oc1cccc2c1C(=O)c1ccsc1C2=O [Compound 81, 5-Acetoxy-naphtho[2,3-b]thiophene-4,9-dione]
- inhibition of HaCaT cell proliferation (in words) [2]: inhibited cell proliferation at concentrations comparable to β-lapachone and the furan analogs
- IC50 [2, 7]: 1.4 µM
- LDH release compared to vehicle control (in words) [5]: without significant elevation of LDH release over the vehicle control
- LDH (mU) [5]: 160 mU

Compound: O=C1c2cccc(O)c2C(=O)c2ccsc21 [Compound 82, 5-Hydroxy-naphtho[2,3-b]thiophene-4,9-dione]
- inhibition of HaCaT cell proliferation (in words) [2]: inhibited cell proliferation at concentrations comparable to β-lapachone and the furan analogs
- IC50 [2, 7]: 1 µM
- LDH release compared to vehicle control (in words) [5]: without significant elevation of LDH release over the vehicle control
- LDH (mU) [5]: 117 mU

Compound: O=C1c2c(O)cccc2Cc2cccc(O)c21 [anthralin, reference compound]
- IC50 [2, 7]: 0.7 µM
- LDH release compared to vehicle control (in words) [5]: LDH release significantly higher than vehicle controls
- LDH (mU) [5]: 294 mU

Compound: CC(C)=CCC1=C(O)C(=O)c2ccccc2C1=O [lapachol]
- inhibition of keratinocyte growth in HaCaT model (in words) [6]: relatively inactive

Compound: CC1(C)CCC2=C(O1)C(=O)c1ccccc1C2=O [α-lapachone, reference compound]
- IC50 ([2]; Homo sapiens, HaCaT, read-out: AA in HaCaT Cells IC50 (μM)): 10 µM
- inhibition of keratinocyte growth in HaCaT model (in words) [6]: relatively inactive

From US20060142271A1, “Novel lapacho compounds and methods of use thereof” (priority 2002, published 2006)
